In ChEMBL document CHEMBL5726257, “Sphingosine 1-phosphate receptor antagonists” (2017):

Key:
[1] = target: Sphingosine 1-phosphate receptor 5 (Homo sapiens, UniProt Q9H228); experiment: (§1) In Vitro Binding Assay: I. Master Stock SolutionUnless specified otherwise, the sample compounds were diluted in 100% anhydrous DMSO including all dilutions. The compounds were tested as the citrate salt (1 equivalent per molecule). If the sample compound is provided in a different solvent all master stock dilutions are performed in the specified solvent. All control wells contained identical solvent final concentrations as the sample compound wells.II. Compound Plate AssayThe sample compounds were transferred from a master stock solution into a daughter plate that was used in the assay. Each sample compound was diluted into an assay buffer (1×HBSS with 20 mM HEPES, 2.5 mM Probenecid, and 0.4% Free Fatty Acid BSA) at an appropriate concentration to obtain final specified concentrations.III. Antagonist Assay FormatUsing the EC80 values that were determined real-time, stimulated all pre-incubated sample compounds and reference antagonists (if applicable) were compared with the EC80 values of reference agonist. These were read for 180 seconds using the […] (This assay added reference agonist to respective wells-then fluorescences measurements were collected to calculate IC50 values).
[2] = target: Sphingosine 1-phosphate receptor 2 (Homo sapiens, UniProt O95136); experiment: as §1
Chain of Sphingosine 1-phosphate receptor 2 (O95136 whole entry): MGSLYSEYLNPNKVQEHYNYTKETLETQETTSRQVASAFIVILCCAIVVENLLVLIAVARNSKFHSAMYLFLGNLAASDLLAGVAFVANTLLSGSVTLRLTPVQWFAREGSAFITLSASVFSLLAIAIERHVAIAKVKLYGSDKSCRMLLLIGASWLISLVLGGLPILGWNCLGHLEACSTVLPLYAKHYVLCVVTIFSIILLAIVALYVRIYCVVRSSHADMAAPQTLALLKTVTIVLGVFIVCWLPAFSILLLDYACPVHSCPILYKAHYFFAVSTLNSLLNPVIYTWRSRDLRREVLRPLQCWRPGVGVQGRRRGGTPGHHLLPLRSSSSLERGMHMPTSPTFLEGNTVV

Chain of Sphingosine 1-phosphate receptor 5 (Q9H228 whole entry): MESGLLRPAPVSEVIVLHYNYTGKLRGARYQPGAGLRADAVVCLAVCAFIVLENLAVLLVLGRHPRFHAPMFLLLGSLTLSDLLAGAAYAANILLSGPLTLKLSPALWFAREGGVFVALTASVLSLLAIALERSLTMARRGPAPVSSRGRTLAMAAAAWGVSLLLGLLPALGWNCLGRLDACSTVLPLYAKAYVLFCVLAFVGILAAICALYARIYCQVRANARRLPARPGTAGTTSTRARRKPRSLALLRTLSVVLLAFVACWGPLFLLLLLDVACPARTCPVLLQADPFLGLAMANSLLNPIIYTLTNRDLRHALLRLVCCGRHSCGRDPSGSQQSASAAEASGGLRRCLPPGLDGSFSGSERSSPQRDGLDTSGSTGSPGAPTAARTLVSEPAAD

Compound	IC50 [1] [nM]	IC50 [2] [nM]
Cc1nn(C)c2nc(N(CCCO)NC(=O)Nc3cc(Cl)nc(Cl)c3)cc(C(C)C)c12	12	19
C=CCN(NC(=O)Nc1cc(Cl)nc(Cl)c1)c1cc(C(C)C)c2c(C)nn(C)c2n1	110	52
